Data as given in patent publication US8765994B2, “Ship 1 modulators” (The University of British Columbia, priority 2001, dated 2014).

Assays:
SHIP 1 enzyme = molecular target: T1, SHIP 1 enzyme (Homo sapiens, UniProt Q92835); experiment: SHIP 1 enzyme assay (inorganic phosphate release, malachite green); format: biochemical; conditions: FIG. 1
T1 construct: hemagglutinin (HA); hexahistidine (His6); made in house
T1 sequence (Q92835 1-1189): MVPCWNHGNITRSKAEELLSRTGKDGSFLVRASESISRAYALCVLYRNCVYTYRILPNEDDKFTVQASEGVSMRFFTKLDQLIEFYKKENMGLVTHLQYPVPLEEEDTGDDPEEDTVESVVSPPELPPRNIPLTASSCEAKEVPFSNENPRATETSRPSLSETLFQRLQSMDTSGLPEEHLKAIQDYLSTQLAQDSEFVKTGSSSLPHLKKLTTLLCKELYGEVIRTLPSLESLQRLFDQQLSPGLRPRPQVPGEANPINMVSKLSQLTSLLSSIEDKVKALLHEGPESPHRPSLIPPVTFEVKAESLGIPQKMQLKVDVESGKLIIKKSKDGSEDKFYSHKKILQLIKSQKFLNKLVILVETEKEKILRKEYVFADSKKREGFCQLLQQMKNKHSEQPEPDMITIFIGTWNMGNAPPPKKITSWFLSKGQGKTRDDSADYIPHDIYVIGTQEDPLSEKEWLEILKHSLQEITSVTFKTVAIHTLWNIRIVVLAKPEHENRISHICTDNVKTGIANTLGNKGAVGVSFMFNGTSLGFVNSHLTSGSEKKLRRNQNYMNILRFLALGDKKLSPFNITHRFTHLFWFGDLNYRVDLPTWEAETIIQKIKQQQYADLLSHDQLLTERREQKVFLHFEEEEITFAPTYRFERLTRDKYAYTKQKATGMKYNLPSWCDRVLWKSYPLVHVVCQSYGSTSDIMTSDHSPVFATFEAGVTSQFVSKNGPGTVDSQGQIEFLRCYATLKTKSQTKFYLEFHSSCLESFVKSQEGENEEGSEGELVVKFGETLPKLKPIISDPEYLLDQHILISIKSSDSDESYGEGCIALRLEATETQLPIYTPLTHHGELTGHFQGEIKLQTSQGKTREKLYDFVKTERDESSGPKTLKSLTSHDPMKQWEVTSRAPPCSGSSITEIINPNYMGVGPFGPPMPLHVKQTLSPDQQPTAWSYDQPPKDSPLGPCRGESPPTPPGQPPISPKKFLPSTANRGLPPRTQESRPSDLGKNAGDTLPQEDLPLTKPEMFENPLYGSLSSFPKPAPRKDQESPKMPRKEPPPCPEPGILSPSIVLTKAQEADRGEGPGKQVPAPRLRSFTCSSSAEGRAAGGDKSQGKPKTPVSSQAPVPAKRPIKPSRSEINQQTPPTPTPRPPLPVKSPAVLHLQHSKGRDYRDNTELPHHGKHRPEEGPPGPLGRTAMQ
Description: The assay was performed in 96-well microtitre plates. SHIP 1 enzyme was produced with a hemagglutinin and a hexahistidine tag, from a mammalian expression vector. The His tag was employed to enhance purification. SHIP 1 enzyme (10 ng) was incubated with extract or DMSO for 15 minutes at room temperature before addition of 200 µM inositol-1,3,4,5-tetrakisphosphate. The reaction was allowed to proceed for 20 minutes at 37 degrees C. The amount of inorganic phosphate released was then assessed by the addition of malachite green reagent followed by an absorbance measurement at 650 nm.

SHIP 1−/− macrophages = experiment: Macrophage NO release assay in SHIP 1-/- macrophages; format: cell-based; conditions: FIG. 2
Description: For the NO release assay, wild-type or SHIP 1−/− macrophage cells were aliquoted into microtitre plates (5×10^4/well) and activated with […] endotoxin (LPS) in the presence or absence of test compound or DMSO carrier. The cells were incubated at 37° C., 5% CO2 for 24 hours and the culture supernatant was removed for NO determination using the Griess reagent. Alternatively, J774.1a macrophage cells were treated with 10 ng/ml of test compound dissolved in DMSO for 40 minutes prior to the addition of LPS. Culture supernatants were collected after 24 hr. for determination of NO concentration using the Griess reagent.

[1] = system: bone marrow derived mast cells; experiment: Mast cell activation assay (β-hexosaminidase release); format: cell-based; conditions: FIG. 3
Description: For the mast cell activation assay, bone marrow derived mast cells were incubated at 4° C. with anti-DNP IgE for 1 hr. They were then washed twice with 23° C. Tyrode's buffer, and incubated in the presence of test compound or vehicle control for 30 minutes before a 15 minute treatment with DNP-human serum albumin. The degree of degranulation was determined by measuring the release of β-hexosaminidase.

antiplasmodial = conditions: reported in literature; cited from earlier work
antitrypanosomal = conditions: reported in literature; cited from earlier work

Structure (SMILES): COC(=O)c1cc(O)c(O)c2c1[C@]1(C)CC[C@H]3C(C)(C)CCC[C@]3(C)[C@H]1C2 [Pelorol, pelorol]
- Activation of SHIP 1 in enzyme assay (assay-guided fractionation) (SHIP 1 enzyme): active compound
- Inhibition of NO release in SHIP 1−/− macrophages (SHIP 1−/− macrophages): not observed
- IgE induced mast cell degranulation [1]: significantly reduced
- antiplasmodial effects (antiplasmodial): weak
- antitrypanosomal effects (antitrypanosomal): weak
